Each structure is given as a SMILES string.

Assay [1] concerns the target T1, Serine/threonine-protein kinase Nek1 (Homo sapiens) (UniProt Q96PY6).
T1 sequence (whole entry): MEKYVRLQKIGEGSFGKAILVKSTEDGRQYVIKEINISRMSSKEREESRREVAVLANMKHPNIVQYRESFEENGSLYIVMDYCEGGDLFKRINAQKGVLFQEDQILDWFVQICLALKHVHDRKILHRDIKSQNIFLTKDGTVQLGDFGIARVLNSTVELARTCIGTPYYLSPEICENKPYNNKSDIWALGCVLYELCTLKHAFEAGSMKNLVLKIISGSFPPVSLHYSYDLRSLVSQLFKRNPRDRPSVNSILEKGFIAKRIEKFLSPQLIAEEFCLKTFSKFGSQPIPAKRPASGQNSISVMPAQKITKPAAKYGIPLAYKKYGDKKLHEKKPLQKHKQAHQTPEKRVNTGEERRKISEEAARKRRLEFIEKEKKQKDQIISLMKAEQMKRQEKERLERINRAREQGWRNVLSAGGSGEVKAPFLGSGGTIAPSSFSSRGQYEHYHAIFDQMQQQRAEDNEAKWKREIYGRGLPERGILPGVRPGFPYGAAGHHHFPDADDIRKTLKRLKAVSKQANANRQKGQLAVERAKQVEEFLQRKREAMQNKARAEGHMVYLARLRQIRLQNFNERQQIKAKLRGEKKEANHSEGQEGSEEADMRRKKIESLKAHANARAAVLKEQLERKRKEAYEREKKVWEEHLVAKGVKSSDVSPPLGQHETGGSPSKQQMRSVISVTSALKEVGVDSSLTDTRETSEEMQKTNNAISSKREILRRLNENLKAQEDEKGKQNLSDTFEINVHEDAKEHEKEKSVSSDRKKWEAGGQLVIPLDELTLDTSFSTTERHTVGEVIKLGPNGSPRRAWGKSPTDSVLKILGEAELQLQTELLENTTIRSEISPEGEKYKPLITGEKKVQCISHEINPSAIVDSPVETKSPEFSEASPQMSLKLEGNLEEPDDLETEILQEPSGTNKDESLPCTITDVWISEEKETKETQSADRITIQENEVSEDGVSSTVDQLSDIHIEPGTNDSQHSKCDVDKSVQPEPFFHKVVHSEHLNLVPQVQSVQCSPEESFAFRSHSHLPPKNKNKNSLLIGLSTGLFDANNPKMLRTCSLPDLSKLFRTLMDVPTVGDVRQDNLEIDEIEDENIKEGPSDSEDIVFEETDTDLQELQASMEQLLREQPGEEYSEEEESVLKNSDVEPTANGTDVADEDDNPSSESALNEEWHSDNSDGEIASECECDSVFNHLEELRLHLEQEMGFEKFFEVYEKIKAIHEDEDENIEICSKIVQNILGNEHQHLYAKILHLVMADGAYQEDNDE
Put plainly: Selectivity interaction (Kinase panel (DSF assay)) EUB0001558a NEK1.

In assay [2] the target is Protein-tyrosine kinase 2-beta (Homo sapiens) (UniProt Q14289). Nature of the assay: Selectivity interaction (Kinase screening (Nanosyn)) EUB0000604a PTK2B.
In assay [3] the target is Casein kinase II subunit alpha (Homo sapiens, UniProt P68400). Nature of the assay: Selectivity interaction (KinomeScan (DiscoverX)) EUB0000607a CSNK2A1. Particulars: at 10 µM.
Assay [4] deals with Serine/threonine-protein kinase MARK2 (Homo sapiens) (UniProt Q7KZI7). Put plainly: Selectivity interaction (ActivX KiNativ screen (kinase selectivity in THP-1 cell lysates)) EUB0000639a MARK2. The assay is classed as subcellular. To be noted: lysate, at 0.01 µM.
In assay [5] the target is T2, Dual specificity mitogen-activated protein kinase kinase 3 (Homo sapiens) (UniProt P46734).
T2 sequence (whole entry): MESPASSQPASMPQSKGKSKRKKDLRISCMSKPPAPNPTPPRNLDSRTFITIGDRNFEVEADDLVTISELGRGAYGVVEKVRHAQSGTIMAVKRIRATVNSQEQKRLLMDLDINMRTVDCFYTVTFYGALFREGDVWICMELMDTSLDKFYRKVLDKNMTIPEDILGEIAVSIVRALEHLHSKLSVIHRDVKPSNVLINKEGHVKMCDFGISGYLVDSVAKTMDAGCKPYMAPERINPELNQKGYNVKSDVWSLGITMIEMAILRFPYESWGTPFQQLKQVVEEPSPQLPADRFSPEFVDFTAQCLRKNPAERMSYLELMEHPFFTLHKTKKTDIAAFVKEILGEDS
Put plainly: Selectivity interaction (ActivX KiNativ screen (kinase selectivity in THP-1 cell lysates)) EUB0000639a MAP2K3. Particulars: lysate, at 0.01 µM. The format is subcellular.

Assay [6] addresses Ribosomal protein S6 kinase alpha-1 (Homo sapiens, UniProt Q15418). Put plainly: Selectivity interaction (ActivX KiNativ screen (kinase selectivity in THP-1 cell lysates)) EUB0000639a RPS6KA1. To be noted: lysate, at 0.04 µM. The assay is classed as subcellular.
The target in assay [7] is T3, Ephrin type-A receptor 3 (Homo sapiens) (UniProt P29320).
T3 sequence (whole entry): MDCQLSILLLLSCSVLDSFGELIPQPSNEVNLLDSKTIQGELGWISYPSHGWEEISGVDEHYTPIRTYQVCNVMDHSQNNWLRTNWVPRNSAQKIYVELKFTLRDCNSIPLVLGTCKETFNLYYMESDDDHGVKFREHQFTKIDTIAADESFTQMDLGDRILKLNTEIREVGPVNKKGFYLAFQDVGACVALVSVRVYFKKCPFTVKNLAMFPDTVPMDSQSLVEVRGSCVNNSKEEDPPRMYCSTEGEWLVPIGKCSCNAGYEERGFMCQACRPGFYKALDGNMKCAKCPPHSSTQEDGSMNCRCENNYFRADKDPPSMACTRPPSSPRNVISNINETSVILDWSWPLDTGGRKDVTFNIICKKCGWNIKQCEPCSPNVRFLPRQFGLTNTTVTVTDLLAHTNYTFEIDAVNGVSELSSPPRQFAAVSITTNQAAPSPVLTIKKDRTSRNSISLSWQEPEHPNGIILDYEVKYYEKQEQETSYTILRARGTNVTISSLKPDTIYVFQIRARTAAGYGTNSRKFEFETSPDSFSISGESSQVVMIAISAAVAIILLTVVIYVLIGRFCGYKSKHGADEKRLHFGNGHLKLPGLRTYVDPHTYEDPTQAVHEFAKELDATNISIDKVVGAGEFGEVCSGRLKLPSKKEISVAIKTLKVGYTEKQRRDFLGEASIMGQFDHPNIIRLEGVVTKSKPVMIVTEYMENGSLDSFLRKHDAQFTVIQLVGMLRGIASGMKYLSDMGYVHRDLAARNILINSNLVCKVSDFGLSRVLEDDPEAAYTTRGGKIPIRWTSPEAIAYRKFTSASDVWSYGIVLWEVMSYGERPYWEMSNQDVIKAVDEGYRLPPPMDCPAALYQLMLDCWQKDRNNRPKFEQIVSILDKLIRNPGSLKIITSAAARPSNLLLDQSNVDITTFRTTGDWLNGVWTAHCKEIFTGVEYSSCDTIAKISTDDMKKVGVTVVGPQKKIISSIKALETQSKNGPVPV
Nature of the assay: Selectivity interaction (KinomeScan (DiscoverX)) EUB0000595a EPHA3. To be noted: at 10 µM.

The target of assay [8] is cAMP-dependent protein kinase catalytic subunit alpha (Homo sapiens, UniProt P17612). Put plainly: Selectivity interaction (Kinase panel (literature)) EUB0001199aCl PRKACA. Particulars: at 1 µM.

Sequence of Protein-tyrosine kinase 2-beta (Homo sapiens) (Q14289 whole entry, looked up): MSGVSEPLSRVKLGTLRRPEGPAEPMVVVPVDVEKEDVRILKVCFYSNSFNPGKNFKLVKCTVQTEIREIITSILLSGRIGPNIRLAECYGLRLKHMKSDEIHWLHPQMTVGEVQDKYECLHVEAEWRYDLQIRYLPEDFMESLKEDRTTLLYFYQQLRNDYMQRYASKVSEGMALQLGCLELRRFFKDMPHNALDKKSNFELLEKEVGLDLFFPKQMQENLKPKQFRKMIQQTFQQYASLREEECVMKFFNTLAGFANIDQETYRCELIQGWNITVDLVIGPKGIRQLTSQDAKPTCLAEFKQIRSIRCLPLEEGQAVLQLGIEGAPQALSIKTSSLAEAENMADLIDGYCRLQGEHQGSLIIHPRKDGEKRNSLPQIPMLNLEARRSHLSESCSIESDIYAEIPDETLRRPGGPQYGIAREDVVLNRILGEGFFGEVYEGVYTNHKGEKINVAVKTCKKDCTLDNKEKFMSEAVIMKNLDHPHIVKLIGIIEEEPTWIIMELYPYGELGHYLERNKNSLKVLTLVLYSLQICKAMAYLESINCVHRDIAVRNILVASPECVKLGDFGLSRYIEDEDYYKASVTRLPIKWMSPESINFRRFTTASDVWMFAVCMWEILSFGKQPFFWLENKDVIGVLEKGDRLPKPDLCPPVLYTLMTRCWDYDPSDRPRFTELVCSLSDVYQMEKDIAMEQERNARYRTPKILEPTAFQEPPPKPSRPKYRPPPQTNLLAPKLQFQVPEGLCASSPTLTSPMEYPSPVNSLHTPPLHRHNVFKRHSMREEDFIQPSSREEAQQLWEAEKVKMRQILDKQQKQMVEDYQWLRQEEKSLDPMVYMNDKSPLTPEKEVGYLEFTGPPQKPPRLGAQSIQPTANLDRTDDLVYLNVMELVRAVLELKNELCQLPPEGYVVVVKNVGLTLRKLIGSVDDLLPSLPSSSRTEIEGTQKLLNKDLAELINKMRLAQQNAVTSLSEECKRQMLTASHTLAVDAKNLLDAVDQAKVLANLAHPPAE
Sequence of Ribosomal protein S6 kinase alpha-1 (Q15418 whole entry): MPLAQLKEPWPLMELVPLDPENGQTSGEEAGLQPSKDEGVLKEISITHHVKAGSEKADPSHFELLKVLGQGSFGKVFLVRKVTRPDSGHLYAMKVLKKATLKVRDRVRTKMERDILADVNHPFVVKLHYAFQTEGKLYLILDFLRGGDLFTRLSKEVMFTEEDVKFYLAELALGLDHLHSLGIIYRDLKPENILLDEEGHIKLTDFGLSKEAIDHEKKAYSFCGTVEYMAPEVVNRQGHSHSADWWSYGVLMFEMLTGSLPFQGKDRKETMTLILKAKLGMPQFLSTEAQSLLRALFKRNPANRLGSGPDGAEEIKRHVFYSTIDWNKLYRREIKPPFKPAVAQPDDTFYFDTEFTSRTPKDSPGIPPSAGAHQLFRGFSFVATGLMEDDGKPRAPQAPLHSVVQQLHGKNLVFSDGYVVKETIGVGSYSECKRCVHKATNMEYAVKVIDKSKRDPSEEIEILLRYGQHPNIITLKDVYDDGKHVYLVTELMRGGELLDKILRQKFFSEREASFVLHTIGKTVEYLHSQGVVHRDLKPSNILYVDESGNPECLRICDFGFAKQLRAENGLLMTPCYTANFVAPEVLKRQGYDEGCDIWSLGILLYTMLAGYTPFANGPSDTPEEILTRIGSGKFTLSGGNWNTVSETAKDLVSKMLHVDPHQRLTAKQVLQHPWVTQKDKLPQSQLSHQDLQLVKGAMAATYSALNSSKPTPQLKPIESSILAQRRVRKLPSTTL
Sequence of Serine/threonine-protein kinase MARK2 (Homo sapiens) (Q7KZI7 whole entry): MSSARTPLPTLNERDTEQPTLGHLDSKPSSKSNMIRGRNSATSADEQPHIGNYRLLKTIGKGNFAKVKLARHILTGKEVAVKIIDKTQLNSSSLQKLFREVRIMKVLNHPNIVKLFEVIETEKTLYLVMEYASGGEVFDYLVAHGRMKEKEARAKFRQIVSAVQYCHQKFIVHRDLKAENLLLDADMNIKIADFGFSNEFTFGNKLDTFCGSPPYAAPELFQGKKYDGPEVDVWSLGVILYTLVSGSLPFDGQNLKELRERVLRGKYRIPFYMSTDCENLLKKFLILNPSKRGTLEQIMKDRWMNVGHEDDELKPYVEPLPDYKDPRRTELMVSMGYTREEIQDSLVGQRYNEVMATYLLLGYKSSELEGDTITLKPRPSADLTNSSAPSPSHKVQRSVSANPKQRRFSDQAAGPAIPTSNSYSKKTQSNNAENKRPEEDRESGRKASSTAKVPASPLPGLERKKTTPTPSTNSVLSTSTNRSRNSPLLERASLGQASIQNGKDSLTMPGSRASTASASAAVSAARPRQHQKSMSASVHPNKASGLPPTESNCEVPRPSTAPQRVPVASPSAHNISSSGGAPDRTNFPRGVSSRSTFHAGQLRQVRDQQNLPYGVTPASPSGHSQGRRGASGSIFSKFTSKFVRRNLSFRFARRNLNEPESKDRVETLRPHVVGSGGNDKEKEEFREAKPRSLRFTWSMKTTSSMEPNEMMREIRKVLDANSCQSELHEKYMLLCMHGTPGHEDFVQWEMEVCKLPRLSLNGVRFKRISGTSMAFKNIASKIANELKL
Sequence of Casein kinase II subunit alpha (P68400 whole entry, looked up): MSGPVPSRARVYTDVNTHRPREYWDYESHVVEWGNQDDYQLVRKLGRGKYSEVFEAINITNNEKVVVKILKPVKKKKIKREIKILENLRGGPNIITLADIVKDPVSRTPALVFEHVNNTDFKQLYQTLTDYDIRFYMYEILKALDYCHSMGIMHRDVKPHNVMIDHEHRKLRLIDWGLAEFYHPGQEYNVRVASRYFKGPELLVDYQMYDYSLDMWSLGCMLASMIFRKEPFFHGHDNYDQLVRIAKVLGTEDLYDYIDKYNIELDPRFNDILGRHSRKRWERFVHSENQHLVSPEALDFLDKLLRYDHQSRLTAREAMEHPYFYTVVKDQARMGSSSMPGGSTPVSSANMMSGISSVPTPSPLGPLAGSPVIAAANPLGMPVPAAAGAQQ

The compound `CC(C)(O)[C@H](F)CN1Cc2cc(NC(=O)c3cnn4cccnc34)c(N3CCOCC3)cc2C1=O` returned a dTM in assay [1] of -1.2 K. On to `Cc1cnc(Nc2ccc(F)cc2Cl)nc1-c1c[nH]c(C(=O)N[C@H](CO)c2cccc(Cl)c2)c1`, for which, in assay [2], the % of inhibition stood at 6%. For `CNC(=O)Nc1ccc(-c2nc(N3CC4CCC(C3)O4)c3cnn(C4CCC5(CC4)OCCO5)c3n2)cc1`, in assay [3], the % of control worked out at 80%. With `CC[C@@H]1[C@H](F)C(=O)N[C@@H]1COc1nccc2cc(C(N)=O)c(OC)cc12` [ZIMLOVISERTIB], the % of inhibition is -5.4% in assay [4], 9% in assay [5] and -6.2% in assay [6].

The compound `COCC(=O)NC/C=C/c1ccc2ncnc(Nc3ccc(Oc4ccc(C)nc4)c(C)c3)c2c1` [CP-724714] returned a % of control in assay [7] of 97%. Regarding `CN1Cc2nccc(-c3cn(C)nc3-c3ccc(F)cc3)c2C1=O`, the % of inhibition in assay [8] turned out to be 2%.

The values are drawn from ChEMBL document CHEMBL5465560, “Selectivity Literature for EUbOPEN Chemogenomic Library” (2024).
